Laboratory results taken from patent publication US20260335310A1, “GEPOTIDACIN FOR USE IN THE TREATMENT OF BACTERIAL PROSTATITIS” (GLAXOSMITHKLINE INTELLECTUAL PROPERTY DEVELOPMENT LIMITED, priority 2022, published 2026).
Like-named read-outs stand apart in the source and are kept apart here.

Tests used:
[1] = Total plasma pharmacokinetics of gepotidacin in healthy and E. coli infected rats; type: in vivo, rat; settings: IV bolus 20 mg/kg; for Vd / half-life / clearance: rat, plasma, iv, 20 mg/kg; for clearance: read-out: CLt,plasma
Excerpt: (§1) An Escherichia coli prostatitis model in rats was obtained as follows. Four days before microdialysis, rats (n=11) were infected with Escherichia coli ATCC 13441 in the prostatic urethra, to induce E. coli prostatitis, at an inoculum of 10^7 CFU/rat. Healthy rats (n=9) were not infected with E. coli as control.
(§2) The day before the experiment, two CMA/20 probes (membrane length 10 mm, Harvard Apparatus, Courtaboeuf France) were inserted into right jugular vein and the right hind leg muscle of healthy and infected rats under anesthesia and analgesic treatment. In parallel, catheters were inserted into the femoral vein and artery to administer gepotidacin intravenously (IV) and to collect blood samples for determination of total plasma gepotidacin concentrations, respectively. The rats were allowed to recover consciousness, and food was withdrawn for 12 hours.
(§3) On the day of the experiment, healthy control and infected rats were re-anesthetized and a CMA/20 Elite probe (membrane length 4 mm) was inserted into the prostate. All probes were connected to infusion pumps and perfused with Ringer containing a calibrator (((R)-1-((4-(((2,3-dihydro-[1,4]oxathiino[2,3-c]pyridin-7-yl)methyl)amino)piperidin-1-yl)methyl)-1,2-dihydro-3H,8H-2a,5,8a-triazaacenaphthylene-3,8-dione; […]) at a flow rate of 0.5 μL/min with Ringer. After an equilibration period, gepotidacin was administered by IV bolus at a dose of 20 mg/kg. Blood, muscle, and prostate dialysates were collected every 10 minutes for 90 minutes, and then every 30 minutes […]. Seven blood samples were also collected for analysis of gepotidacin pharmacokinetics in total plasma. Gepotidacin concentrations were measured in dialysates and in plasma by LC-MS/MS.
(§4) Pharmacokinetic (PK) parameters were determined in each individual rat by a noncompartmental approach according to standard procedures and with the software Phoenix WinNonLin 7. (Certara, Princeton, NJ) Total unbound body clearance (CLu) was calculated as CLu=dose/AUCu,blood, where AUCu,blood is the total area under the unbound blood concentration-versus-time curve from zero to infinity, equal to the area under the curve from zero to the last measured concentration AUC0-last,u,blood added to the area under the curve from the last measured concentration to infinity AUClast-infinity,u,blood. AUC0-last,u,blood was calculated by linear-logarithmic trapezoidal method. AUClast-infinity,u,blood the area remaining under the curve after the last measured concentration, C(last)u,blood was determined from C(last)u,blood/keblood. The elimination rate constant (keblood) and its corresponding half-life (t1/2,blood) were estimated by least squares fit of the data points (log concentration-time). The linear-logarithmic trapezoidal method was used to compute the area under the unbound blood concentration-versus-time moment curve AUMC0-last,u,blood from zero to the last measured concentration. AUMClast-infinity,u,blood the area remaining under the curve after the last measured concentration was determined from: tlast×C(last)u,blood/keblood+C(last)u,blood/keblood^2. The mean residence time from zero to infinity, MRT0-infinity was determined from AUMC0-infinity,u,blood/AUC0-infinity,u,blood. The volume of distribution (VSSu) was obtained from MRT0-infinity×CLu. The AUCu and t1/2,u in tissues were also estimated by the same procedure.

[2] = In vivo microdialysis of unbound gepotidacin in blood, muscle and prostate of healthy and E. coli infected rats; parameters: species or system rat; settings: for Kp uu: rat, iv, 20 mg/kg
Excerpt: The example herein describes microdialysis experiments in E. coli infected rats to measure tissue distribution of unbound gepotidacin. In vivo microdialysis experiments simultaneously determined unbound gepotidacin concentrations in rat prostate, muscle, and blood. It is important to understand the tissue distribution of unbound gepotidacin, especially in the target prostate tissue, since gepotidacin must diffuse through capillary membranes to reach the prostate. An assumption that the plasma concentration of gepotidacin represents a suitable surrogate of prostate concentrations, without prostate tissue confirmation, may lead to erroneous conclusions, especially since the pathogen is localized in the prostate.
as §1, §2, §3
as §4, with “The volume of distribution (VSSu) was obtained from MRT0-infinity×CLu. The AUCu and t1/2,u in tissues were also estimated by the same procedure.” left out

[3] = infected rats (n = 11; E. coli ATCC 13441 prostatitis)
[4] = healthy rats (n = 9), blood, unbound, IV bolus 20 mg/kg
[5] = healthy rats (n = 9), muscle, unbound, IV bolus 20 mg/kg
[6] = healthy rats (n = 9), prostate, unbound, IV bolus 20 mg/kg
[7] = infected rats (n = 11; E. coli ATCC 13441 prostatitis), blood, unbound, IV bolus 20 mg/kg
[8] = infected rats (n = 11; E. coli ATCC 13441 prostatitis), muscle, unbound, IV bolus 20 mg/kg
[9] = infected rats (n = 11; E. coli ATCC 13441 prostatitis), prostate, unbound, IV bolus 20 mg/kg
[10] = prostatitis (infected) rats, FIG. 1C-1D

AUC ([1]; healthy rats (n = 9)): 6750 ± 950 ng·h/mL | AUC [1, 3]: 7870 ± 2380 ng·h/mL | Vd ([1]; healthy rats (n = 9)): 4.26 ± 0.851 L/kg | half-life ([1]; healthy rats (n = 9)): 1.2 ± 0.19 h | clearance ([1]; healthy rats (n = 9)): 50.3 ± 7.1 mL/min/kg | Vd [1, 3]: 4.02 ± 0.997 L/kg | half-life [1, 3]: 1.27 ± 0.165 h | clearance [1, 3]: 45.6 ± 12.8 mL/min/kg | Half-life and Cmax,u in blood, muscle, and prostate, comparison of tissues ([2]; healthy control rats): similar | Unbound concentration time profile in blood ([2]; healthy control rats, FIG. 1A, 1B): biphasic | CLu (total unbound body clearance) [2, 4]: 44.4 ± 5.1 mL/min/kg | Cmax,u [2, 4]: 10300 ± 2600 ng/mL | VSSu (volume of distribution) [2, 4]: 3.967 ± 0.557 L/kg | t1/2,u [2, 4]: 1.3 ± 0.317 h | Cmax,u [2, 5]: 8600 ± 2500 ng/mL | t1/2,u [2, 5]: 1.3 ± 0.15 h | Cmax,u [2, 6]: 8200 ± 1900 ng/mL | t1/2,u [2, 6]: 1.13 ± 0.183 h | Cmax in prostate, infected compared to healthy rats ([2]; infected rats): slightly lower compared to healthy rats | CLu (total unbound body clearance) [2, 7]: 35.8 ± 5.5 mL/min/kg | Cmax,u [2, 7]: 12300 ± 1900 ng/mL | VSSu (volume of distribution) [2, 7]: 3.344 ± 0.59 L/kg | t1/2,u [2, 7]: 1.43 ± 0.383 h | Cmax,u [2, 8]: 9900 ± 3800 ng/mL | t1/2,u [2, 8]: 1.28 ± 0.367 h | Cmax,u [2, 9]: 6600 ± 2700 ng/mL | t1/2,u [2, 9]: 1.38 ± 0.15 h | Muscle/blood and prostate/blood AUCu ratios, infected compared to healthy rats ([2]; infected vs healthy rats, p>0.05, Wilcoxon test, R software): not significantly different | Unbound concentration time profile in blood [2, 10]: biphasic | Unbound concentrations in prostate relative to blood [2, 10]: slightly lower than in blood | Kp uu ([2]; muscle, healthy rats (n = 9), unbound, IV bolus 20 mg/kg, read-out: AUCu muscle/blood): 1.06 ± 0.17 | Kp uu ([2]; muscle, infected rats (n = 11; E. coli ATCC 13441 prostatitis), unbound, IV bolus 20 mg/kg, read-out: AUCu muscle/blood): 1.03 ± 0.13 | Kp uu ([2]; muscle/blood and prostate/blood, healthy control rats, muscle/blood and prostate/blood, read-out: AUCu ratios): ~1 | Kp uu ([2]; prostate, healthy rats (n = 9), unbound, IV bolus 20 mg/kg, read-out: AUCu prostate/blood): 0.89 ± 0.17 | Kp uu ([2]; prostate, infected rats (n = 11; E. coli ATCC 13441 prostatitis), unbound, IV bolus 20 mg/kg, read-out: AUCu prostate/blood): 0.78 ± 0.21
Structure (SMILES): O=c1ccc2ncc(=O)n3c2n1C[C@H]3CN1CCC(NCc2cc3c(cn2)OCCC3)CC1 [gepotidacin, (2R)-2-({4-[(3,4-dihydro-2/pyrano[2,3-c]pyridin-6-ylmethyl)amino]-1-piperidinyl}methyl)-1,2-dihydro-3H,8/2a,5,8a-triazaacenaphthylene-3,8-dione]
Concentration profiles in prostate and muscle relative to blood ([2]; healthy control rats, with the exception of the first time point, FIG. 1A): almost superimposed with blood concentrations | Half-lives, comparison of blood, muscle, and prostate ([2]; infected rats): the same between blood, muscle, and prostate
